Patent publication US11548899B2, “Fused 1,4-oxazepines and related analogs as BET bromodomain inhibitors” (THE REGENTS OF THE UNIVERSITY OF MICHIGAN, priority 2016, dated 2023)
“And” between values parts separate entries of the source, which are not always exact repeats. Identical values can stand only once. Like-named read-outs stand apart in the source and are kept apart here.

Assays:
recombinant BRD4 BD2 = target: T1, recombinant BRD4 BD2 (Homo sapiens, UniProt O60885); experiment: Competitive fluorescence-polarization (FP) binding assay, BRD4 BD2; settings: protein 6 nM, probe 1.5 nM
T1 construct: recombinant BRD4 BD1 and BRD4 BD2 proteins

recombinant BRD4 BD1 = target: T2, recombinant BRD4 BD1 (Homo sapiens, UniProt O60885); experiment: Competitive fluorescence-polarization (FP) binding assay, BRD4 BD1; settings: protein 10 nM, probe 1.5 nM
T2 construct: recombinant BRD4 BD1 and BRD4 BD2 proteins
Procedure: Fluorescence Polarization (FP) competitive binding studies were carried out using a FAM labeled fluorescent probe, see Cpd. […] Equilibrium dissociation constants (Kd) values of the fluorescent probe to BRD4 BD1 and BD2 proteins were determined from protein saturation experiments by monitoring the total fluorescence polarization of mixtures composed with the fluorescent probe at a fixed concentration and proteins with increasing concentrations up to full saturation. […] Plates were incubated at room temperature for 30 minutes with gentle shaking to assure equilibrium.
The IC50 and Ki values of compounds were determined in a competitive binding experiment. […] Mixtures of 10 μl of the tested compounds in assay buffer with 40% Ethylene Glycol and 190 μl of preincubated protein/probe complex solution in the assay buffer (100 mM potassium phosphate, pH 6.5, 0.01% Triton X-100) were added into assay plates which were incubated at room temperature for 30 minutes with gentle shaking. Final concentrations of proteins were 10 and 6 nM in assays for BRD4 BD1 and BD2, respectively. […] FP values were measured as described above. IC50 values were determined by nonlinear regression fitting of the competition curves.

[1] = FP competitive binding, read-out: IC50 (nM) BRD4 BD1

| Compound | IC50 (recombinant BRD4 BD2) [nM] | IC50 (recombinant BRD4 BD1; [1]) | IC50 (recombinant BRD4 BD1; IC50 (nM) BRD4 BD1, FP competitive binding) [nM] |
| --- | --- | --- | --- |
| Cc1nnc2n1-c1cccc(Br)c1COC2 [Cpd. No. 36, 7-bromo-1-methyl-4,6-dihydrobenzo[e][1,2,4]triazolo[3,4-c][1,4]oxazepine] | > 10000 | > 10000 nM |  |
| Cc1nnc2n1-c1cccc(Nc3ccccc3)c1COC2 [Cpd. No. 37, 1-methyl-N-phenyl-4,6-dihydrobenzo[e][1,2,4]triazolo[3,4-c][1,4]oxazepin-7-amine] | 1460 | 14500 nM |  |
| Cc1nnc2n1-c1sc(C3=CCOCC3)c(Cc3ccccc3)c1COC2 [Cpd. No. 95, 3-benzyl-2-(3,6-dihydro-2H-pyran-4-yl)-9-methyl-4H,6H-thieno[2,3-e][1,2,4]triazolo[3,4-c][1,4]oxazepine] |  | 1820 nM |  |
| Cc1sc2c(c1Cc1ccccc1)CN[C@H](C)c1nnc(C)n1-2 [Cpd. No. 17, (R)-3-benzyl-2,6,9-trimethyl-5,6-dihydro-4H-thieno[3,2-f][1,2,4]triazolo[4,3-a][1,4]diazepine] | 622 | 1080 nM |  |
| Cc1nnc2n1-c1cccc(C3=CCc4ccccc43)c1COC2 [Cpd. No. 44, 7-(1H-inden-3-yl)-1-methyl-4,6-dihydrobenzo[e][1,2,4]triazolo[3,4-c][1,4]oxazepine] | 238 | 4400 nM |  |
| C=C(c1ccccc1)c1cccc2c1COCc1nnc(C)n1-2 [Cpd. No. 43, 1-methyl-7-(1-phenylvinyl)-4,6-dihydrobenzo[e][1,2,4]triazolo[3,4-c][1,4]oxazepine] | 328 | 3530 nM |  |
| Cc1sc2c(c1Br)CN(C(=O)OCc1ccccc1)[C@@H](C)c1nnc(C)n1-2 [Cpd. No. 147, benzyl (S)-3-bromo-2,6,9-trimethyl-4H-thieno[3,2-f][1,2,4]triazolo[4,3-a][1,4]diazepine-5(6H)-carboxylate] | 83700 | 48600 nM |  |
| Cc1nnc2n1-c1ccc(-c3cnn(CC(N)=O)c3)c(Cc3ccccc3)c1COC2 [Cpd. No. 76, 2-(4-(7-benzyl-1-methyl-4,6-dihydrobenzo[e][1,2,4]triazolo[3,4-c][1,4]oxazepin-8-yl)-1H-pyrazol-1-yl)acetamide] |  | 937 nM |  |
| Cc1nnc2n1-c1ccc(C3=CCOCC3)c(Cc3ccccc3)c1COC2 [Cpd. No. 77, 7-benzyl-8-(3,6-dihydro-2H-pyran-4-yl)-1-methyl-4,6-dihydrobenzo[e][1,2,4]triazolo[3,4-c][1,4]oxazepine] |  | 13200 nM |  |
| COC(=O)C[C@H]1c2nnc(C)n2-c2sc(C)c(Cc3ccccc3)c2CN1C(=O)OCc1ccccc1 [Cpd. No. 21, benzyl (S)-3-benzyl-6-(2-methoxy-2-oxoethyl)-2,9-dimethyl-4H-thieno[3,2-f][1,2,4]triazolo[4,3-a][1,4]diazepine-5(6H)-carboxylate] | 17700 | 23800 nM |  |
| Cc1nnc2n1-c1cccc(C3CCCCc4ccccc43)c1COC2 (stereo not shown) [Cpd. No. 60, 1-methyl-7-(6,7,8,9-tetrahydro-5H-benzo[7]annulen-5-yl)-4,6-dihydrobenzo[e][1,2,4]triazolo[3,4-c][1,4]oxazepine] |  | 1150 nM |  |
| Cc1nnc2n1-c1ccc(-c3ccc(N)nc3)c(Cc3ccccc3)c1COC2 [Cpd. No. 72, 5-(7-benzyl-1-methyl-4,6-dihydrobenzo[e][1,2,4]triazolo[3,4-c][1,4]oxazepin-8-yl)pyridin-2-amine] |  | 2070 nM and 1980 nM |  |
| Cc1nnc2n1-c1cccc(C3=CCCCc4ccccc43)c1COC2 [Cpd. No. 59, 7-(6,7-dihydro-5H-benzo[7]annulen-9-yl)-1-methyl-4,6-dihydrobenzo[e][1,2,4]triazolo[3,4-c][1,4]oxazepine] |  | 966 nM |  |
| Cc1sc2c(c1C1=CCc3ccccc31)COCc1nnc(C)n1-2 [Cpd. No. 53, 3-(1H-inden-3-yl)-2,9-dimethyl-4,6-dihydrothieno[2,3-e][1,2,4]triazolo[3,4-c][1,4]oxazepine] |  | 244 nM |  |
| Cc1sc2c(c1Cc1ccc(F)c(F)c1)COCc1nnc(C)n1-2 [Cpd. No. 105, 3-(3,4-difluorobenzyl)-2,9-dimethyl-4H,6H-thieno[2,3-e][1,2,4]triazolo[3,4-c][1,4]oxazepine] |  | 279 nM |  |
| Cc1nnc2n1-c1ccc(Cl)c(Br)c1COC2 [Cpd. No. 70, 7-bromo-8-chloro-1-methyl-4,6-dihydrobenzo[e][1,2,4]triazolo[3,4-c][1,4]oxazepine] |  | > 10000 nM |  |
| Cc1sc2c(c1C1=CCCCc3ccccc31)COCc1nnc(C)n1-2 [Cpd. No. 56, 3-(6,7-dihydro-5H-benzo[7]annulen-9-yl)-2,9-dimethyl-4,6-dihydrothieno[2,3-e][1,2,4]triazolo[3,4-c][1,4]oxazepine] |  | 134 nM |  |
| Cc1sc2c(c1Br)COCc1nnc(C)n1-2 [Cpd. No. 2, 3-bromo-2,9-dimethyl-4H,6H-thieno[2,3-e][1,2,4]triazolo[3,4-c][1,4]oxazepine] |  | 23200 nM |  |
| Cc1nnc2n1-c1ccc(C#C[Si](C)(C)C)c(Cc3ccccc3)c1COC2 [Cpd. No. 82, 7-benzyl-1-methyl-8-((trimethylsilyl)ethynyl)-4,6-dihydrobenzo[e][1,2,4]triazolo[3,4-c][1,4]oxazepine] |  | 500 nM |  |
| Cc1sc2c(c1Cn1cccc1)COCc1nnc(C)n1-2 [Cpd. No. 107, 3-((1H-pyrrol-1-yl)methyl)-2,9-dimethyl-4H,6H-thieno[2,3-e][1,2,4]triazolo[3,4-c][1,4]oxazepine] |  | 494 nM |  |

| Compound | IC50 (recombinant BRD4 BD2) [nM] | IC50 (recombinant BRD4 BD1; [1]) | IC50 (recombinant BRD4 BD1; IC50 (nM) BRD4 BD1, FP competitive binding) [nM] |
| --- | --- | --- | --- |
| Cc1nnc2n1-c1ccc(C3CCOCC3)c(Cc3ccccc3)c1COC2 [Cpd. No. 79, 7-benzyl-1-methyl-8-(tetrahydro-2H-pyran-4-yl)-4,6-dihydrobenzo[e][1,2,4]triazolo[3,4-c][1,4]oxazepine] |  | 18100 nM |  |
| Cc1nnc2n1-c1sc(CN3CCOCC3)c(Cc3ccccc3)c1COC2 [Cpd. No. 90, 3-benzyl-9-methyl-2-(morpholinomethyl)-4H,6H-thieno[2,3-][1,2,4]triazolo[3,4-c][1,4]oxazepine] |  | 6510 nM |  |
| Cc1nnc2n1-c1ccc(Cl)c(C3=CCCc4ccccc43)c1COC2 [Cpd. No. 74, 8-chloro-7-(3,4-dihydronaphthalen-1-yl)-1-methyl-4,6-dihydrobenzo[e][1,2,4]triazolo[3,4-c][1,4]oxazepine] |  |  | 1780 |
| Cc1sc2c(c1COC(C)(C)C)COCc1nnc(C)n1-2 [Cpd. No. 108, 3-(tert-butoxymethyl)-2,9-dimethyl-4H,6H-thieno[2,3-e][1,2,4]triazolo[3,4-c][1,4]oxazepine] |  | 5000 nM |  |
| Cc1sc2c(c1Cc1cc(F)cc(F)c1)COCc1nnc(C)n1-2 [Cpd. No. 104, 3-(3,5-difluorobenzyl)-2,9-dimethyl-4H,6H-thieno[2,3-e][1,2,4]triazolo[3,4-c][1,4]oxazepine] |  | 313 nM |  |
| Cc1nnc2n1-c1ccc(-c3cn[nH]c3)c(Cc3ccccc3)c1COC2 [Cpd. No. 75, 7-benzyl-1-methyl-8-(1H-pyrazol-4-yl)-4,6-dihydrobenzo[e][1,2,4]triazolo[3,4-c][1,4]oxazepine] |  | 923 nM |  |
| Cc1nnc2n1-c1ccc(C3CCOC3)c(Cc3ccccc3)c1COC2 (stereo not shown) [Cpd. No. 81, 7-benzyl-1-methyl-8-(tetrahydrofuran-3-yl)-4,6-dihydrobenzo[e][1,2,4]triazolo[3,4-c][1,4]oxazepine] |  | 5420 nM |  |
| Cc1sc2c(c1C1=CCCc3ccc(F)cc31)COCc1nnc(C)n1-2 [Cpd. No. 58, 3-(7-fluoro-3,4-dihydronaphthalen-1-yl)-2,9-dimethyl-4,6-dihydrothieno[2,3-e][1,2,4]triazolo[3,4-c][1,4]oxazepine] |  | 289 nM |  |
| Cc1nnc2n1-c1sc(C3CCOCC3)c(Cc3ccccc3)c1COC2 [Cpd. No. 97, 3-benzyl-9-methyl-2-(tetrahydro-2H-pyran-4-yl)-4H,6H-thieno[2,3-e][1,2,4]triazolo[3,4-c][1,4]oxazepine] |  | 6710 nM |  |
| Cc1nnc2n1-c1scc(Cc3ccccc3)c1COC2 [Cpd. No. 30, 3-benzyl-9-methyl-4H,6H-thieno[2,3-e][1,2,4]triazolo[3,4-c][1,4]oxazepine] |  | 1390 nM |  |
| Cc1sc2c(c1C1CCc3ccccc31)COCc1nnc(C)n1-2 (stereo not shown) [Cpd. No. 55, 3-(2,3-dihydro-1H-inden-1-yl)-2,9-dimethyl-4,6-dihydrothieno[2,3-e][1,2,4]triazolo[3,4-c][1,4]oxazepine] |  | 288 nM |  |
| Cc1nnc2n1-c1scc(Br)c1CO[C@H]2C [Cpd. No. 117, (S)-3-bromo-6,9-dimethyl-4,6-dihydrothieno[2,3-e][1,2,4]triazolo[3,4-c][1,4]oxazepine] |  | 118 nM |  |
| Cc1sc2c(c1-c1ccccc1)COCc1nnc(C)n1-2 [Cpd. No. 3, 2,9-dimethyl-3-phenyl-4H,6H-thieno[2,3-e][1,2,4]triazolo[3,4-c][1,4]oxazepine] |  | 13300 nM |  |
| Cc1sc2c(c1C1=CCCc3cc(F)ccc31)COCc1nnc(C)n1-2 [Cpd. No. 57, 3-(6-fluoro-3,4-dihydronaphthalen-1-yl)-2,9-dimethyl-4,6-dihydrothieno[2,3-e][1,2,4]triazolo[3,4-c][1,4]oxazepine] |  | 198 nM |  |
| Cc1nnc2n1-c1ccc(-c3ccoc3)c(Cc3ccccc3)c1COC2 [Cpd. No. 80, 7-benzyl-8-(furan-3-yl)-1-methyl-4,6-dihydrobenzo[e][1,2,4]triazolo[3,4-c][1,4]oxazepine] |  | 532 nM |  |
| Cc1cc2c(s1)-n1c(C)nnc1COC2 [Cpd. No. 1, 2,9-dimethyl-4H,6H-thieno[2,3-e][1,2,4]triazolo[3,4-c][1,4]oxazepine] |  | 66900 nM |  |
| C#Cc1ccc2c(c1Cc1ccccc1)COCc1nnc(C)n1-2 [Cpd. No. 83, 7-benzyl-8-ethynyl-1-methyl-4,6-dihydrobenzo[e][1,2,4]triazolo[3,4-c][1,4]oxazepine] |  | 150 nM |  |
| Cc1nnc2n1-c1ccc(C3=COCC3)c(Cc3ccccc3)c1COC2 [Cpd. No. 78, 7-benzyl-8-(4,5-dihydrofuran-3-yl)-1-methyl-4,6-dihydrobenzo[e][1,2,4]triazolo[3,4-c][1,4]oxazepine] |  | 1320 nM |  |
| C=C(C)c1sc2c(c1Cc1ccccc1)COCc1nnc(C)n1-2 [Cpd. No. 94, 3-benzyl-9-methyl-2-(prop-1-en-2-yl)-4H,6H-thieno[2,3-e][1,2,4]triazolo[3,4-c][1,4]oxazepine] |  | 1050 nM |  |
